According to PubChem BioAssay AID330 (DTP/NCI, 2004):
Toxic doses and inconclusive results are not listed. How the source made its calls: active means survival T/C of 150% or more; inactive means T/C below 125% in these data. Peptide text beside a SMILES is read from it.

Test system: P388 leukemia ip, CD2F1 mice, survival T/C
Experiment: NCI In Vivo Anticancer Drug Screen. Data for tumor model P388 Leukemia (intraperitoneal) in CD2F1 (CDF1) mice
Settings: endpoint: median survival time, higher = longer survival
Method in brief: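 Mice carrying the transplanted tumor received test compound or vehicle. Survival was recorded in each group, and the value is the treated-group measurement divided by that of the vehicle-treated control group.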

[1] = dose: 50.0 mg/kg/injection, schedule: Q01DX005 (ip), vehicle: saline
[2] = dose: 100.0 mg/kg/injection, schedule: Q01DX005 (ip), vehicle: saline
[3] = dose: 200.0 mg/kg/injection, schedule: Q01DX005 (ip), vehicle: saline
[4] = dose: 100.0 mg/kg/injection, schedule: Q04DX002 (ip), vehicle: saline with Tween-80
[5] = dose: 60.0 mg/kg/injection, schedule: Q01DX005 (ip), vehicle: saline with Tween-80
[6] = dose: 120.0 mg/kg/injection, schedule: Q01DX005 (ip), vehicle: saline with Tween-80
[7] = dose: 240.0 mg/kg/injection, schedule: Q01DX005 (ip), vehicle: saline with Tween-80
[8] = dose: 100.0 mg/kg/injection, schedule: Q04DX003 (ip), vehicle: saline
[9] = dose: 200.0 mg/kg/injection, schedule: Q04DX003 (ip), vehicle: saline
[10] = dose: 100.0 mg/kg/injection, schedule: Q01DX001 (ip), vehicle: Klucel (hydroxypropylcellulose) (HPC)
[11] = dose: 200.0 mg/kg/injection, schedule: Q01DX001 (ip), vehicle: Klucel (hydroxypropylcellulose) (HPC)
[12] = dose: 400.0 mg/kg/injection, schedule: Q01DX001 (ip), vehicle: Klucel (hydroxypropylcellulose) (HPC)
[13] = dose: 50.0 mg/kg/injection, schedule: Q01DX009 (ip), vehicle: saline
[14] = dose: 100.0 mg/kg/injection, schedule: Q01DX009 (ip), vehicle: saline
[15] = dose: 200.0 mg/kg/injection, schedule: Q01DX009 (ip), vehicle: saline
[16] = dose: 50.0 mg/kg/injection, schedule: Q01DX009 (ip), vehicle: saline with Tween-80
[17] = dose: 100.0 mg/kg/injection, schedule: Q01DX009 (ip), vehicle: saline with Tween-80
[18] = dose: 200.0 mg/kg/injection, schedule: Q01DX009 (ip), vehicle: saline with Tween-80

Measured: T/C

CCN(CC)C1=C(C)C2C(C)(C)N=NC12C(=O)OC (centres undefined)
inactive: [1] 98 % of control | [2] 102 % of control | [3] 116 % of control

CCC1(CC)SC(C)(C)N(C=O)C1C(=O)O (centres undefined)
inactive: [4] 99 % of control | dose: 200.0 mg/kg/injection, schedule: Q04DX002 (ip), vehicle: saline with Tween-80 104 % of control | dose: 400.0 mg/kg/injection, schedule: Q04DX002 (ip), vehicle: saline with Tween-80 100 % of control

NC(CSC(c1ccccc1)(c1ccccc1)c1ccc(CO)cc1)C(=O)O (centres undefined)
inactive: dose: 12.5 mg/kg/injection, schedule: Q01DX009 (ip), vehicle: saline with Tween-80 118 % of control

Nc1nnc(-c2ccccc2S)o1
inactive: [5] 103 % of control | [6] 108 % of control | [7] 110 % of control

CC(=O)Cc1nc2ccccc2s1
inactive: dose: 25.0 mg/kg/injection, schedule: Q04DX002 (ip), vehicle: saline with Tween-80 104 % of control | dose: 50.0 mg/kg/injection, schedule: Q04DX002 (ip), vehicle: saline with Tween-80 107 % of control | [4] 102 % of control

COC(=O)c1nnn(-c2ccc(S(N)(=O)=O)cc2)c1C(=O)c1ccc(OC)cc1
inactive: [5] 100 % of control | [6] 99 % of control | [7] 94 % of control

N#Cc1c(F)cccc1N1CCSCC1
inactive: dose: 60.0 mg/kg/injection, schedule: Q01DX005 (ip), vehicle: Klucel (hydroxypropylcellulose) (HPC) 109 % of control | dose: 120.0 mg/kg/injection, schedule: Q01DX005 (ip), vehicle: Klucel (hydroxypropylcellulose) (HPC) 93 % of control | dose: 240.0 mg/kg/injection, schedule: Q01DX005 (ip), vehicle: Klucel (hydroxypropylcellulose) (HPC) 89 % of control

Cc1ccc2c(c1)C(O)C(N)CCO2 (centres undefined)
inactive: [8] 100 % of control | [9] 102 % of control

NC(CCC(=O)O)C(=O)NC(CCC(=O)O)C(=O)O (stereo not drawn) (H-Glu-Glu-OH; configuration not given here)
inactive: [1] 97 % of control | [2] 103 % of control | [3] 104 % of control

Nc1cc(N)c(Nc2ccccc2)cc1Nc1ccccc1
inactive: [10] 99 % of control | [11] 101 % of control | [12] 97 % of control

CC1CCC2(OC1)OC1CC3C4CC=C5CC(OC6OC(CO)C(OC7OC(C)C(OC8OC(C)C(O)C(O)C8O)C(O)C7O)C(O)C6OC6OC(C)C(O)C(O)C6O)CCC5(C)C4CCC3(C)C1C2C (centres undefined)
inactive: dose: 0.62 mg/kg/injection, schedule: Q01DX009 (ip), vehicle: saline 106 % of control | dose: 1.25 mg/kg/injection, schedule: Q01DX009 (ip), vehicle: saline 91 % of control | dose: 2.5 mg/kg/injection, schedule: Q01DX009 (ip), vehicle: saline 90 % of control

CC[C@@H]1C[C@H]2CC3c4[nH]c5ccc(O)cc5c4CCN(C2)C31
inactive: dose: 100.0 mg/kg/injection, schedule: Q01DX001 (ip), vehicle: saline with Tween-80 99 % of control

Cc1cc(C)n(-c2ccncc2[N+](=O)[O-])n1
inactive: [13] 101 % of control | [14] 97 % of control | [15] 105 % of control

CN(C)C(=S)OCC1OC(OC2(CO)OC(COC(=S)N(C)C)C(O)C2O)C(O)C(O)C1O (centres undefined)
inactive: dose: 60.0 mg/kg/injection, schedule: Q01DX005 (ip), vehicle: saline 100 % of control | dose: 120.0 mg/kg/injection, schedule: Q01DX005 (ip), vehicle: saline 103 % of control | dose: 240.0 mg/kg/injection, schedule: Q01DX005 (ip), vehicle: saline 103 % of control

C=CC(C)(O)CS(=O)c1ccccc1 (centres undefined)
inactive: [8] 100 % of control | [9] 101 % of control | dose: 400.0 mg/kg/injection, schedule: Q04DX003 (ip), vehicle: saline 108 % of control

C[N+](C)(CCCCOc1c(Br)cc(Br)cc1Br)Cc1ccc([N+](=O)[O-])o1
inactive: dose: 12.5 mg/kg/injection, schedule: Q04DX003 (ip), vehicle: Klucel (hydroxypropylcellulose) (HPC) 100 % of control | dose: 25.0 mg/kg/injection, schedule: Q04DX003 (ip), vehicle: Klucel (hydroxypropylcellulose) (HPC) 101 % of control | dose: 50.0 mg/kg/injection, schedule: Q04DX003 (ip), vehicle: Klucel (hydroxypropylcellulose) (HPC) 100 % of control

CCN(CC)CC(CN(CC)CC)N(CCO)CC(C)C
inactive: [1] 93 % of control | [2] 100 % of control

O=C(/C=C/c1ccc(OCc2ccccc2)cc1)c1c(F)cccc1F
inactive: [16] 99 % of control | [17] 98 % of control | [18] 100 % of control

CCN(CC)CCNc1cc2c(c3sc4ccccc4c(=O)c13)CCCC2
inactive: dose: 7.8 mg/kg/injection, schedule: Q01DX005 (ip), vehicle: other 113 % of control | dose: 15.6 mg/kg/injection, schedule: Q01DX005 (ip), vehicle: other 110 % of control | dose: 31.3 mg/kg/injection, schedule: Q01DX005 (ip), vehicle: other 113 % of control | dose: 62.5 mg/kg/injection, schedule: Q01DX005 (ip), vehicle: other 101 % of control | dose: 125.0 mg/kg/injection, schedule: Q01DX005 (ip), vehicle: other 104 % of control

O=C1OC(c2ccccc2)CC1N1CCOCC1 (centres undefined)
inactive: [17] 100 % of control | dose: 100.0 mg/kg/injection, schedule: Q04DX003 (ip), vehicle: saline sonified 100 % of control | [18] 100 % of control | dose: 400.0 mg/kg/injection, schedule: Q01DX009 (ip), vehicle: saline with Tween-80 100 % of control | dose: 400.0 mg/kg/injection, schedule: Q04DX003 (ip), vehicle: saline sonified 89 % of control

ClC1c2ccccc2Cc2cccnc21 (centres undefined)
inactive: [16] 102 % of control | [17] 101 % of control | [18] 95 % of control

CC1=C(C)C2(C)c3ccccc3NC(=S)C12C (centres undefined)
inactive: [10] 101 % of control | [11] 105 % of control | [12] 102 % of control

COc1cc2c(c3c1c(=O)c1ccccc1n3C)C=CC(C)(C)O2
inactive: dose: 7.5 mg/kg/injection, schedule: Q01DX009 (ip), vehicle: saline with Tween-80 99 % of control | dose: 12.5 mg/kg/injection, schedule: Q01DX005 (ip), vehicle: saline with Tween-80 92 % of control | dose: 15.0 mg/kg/injection, schedule: Q01DX009 (ip), vehicle: saline with Tween-80 98 % of control | dose: 25.0 mg/kg/injection, schedule: Q01DX005 (ip), vehicle: Klucel (hydroxypropylcellulose) (HPC) 97 % of control | dose: 25.0 mg/kg/injection, schedule: Q01DX005 (ip), vehicle: saline with Tween-80 92 % of control | dose: 30.0 mg/kg/injection, schedule: Q01DX009 (ip), vehicle: saline with Tween-80 103 % of control | dose: 50.0 mg/kg/injection, schedule: Q01DX005 (ip), vehicle: Klucel (hydroxypropylcellulose) (HPC) 112 % of control | dose: 50.0 mg/kg/injection, schedule: Q01DX005 (ip), vehicle: saline with Tween-80 112 % of control | dose: 100.0 mg/kg/injection, schedule: Q01DX005 (ip), vehicle: Klucel (hydroxypropylcellulose) (HPC) 118 % of control | dose: 100.0 mg/kg/injection, schedule: Q01DX005 (ip), vehicle: saline with Tween-80 113 % of control

O=C1C(Cl)=C(Nc2ccc(C(=O)Nc3ccc4cc(S(=O)(=O)O)cc(S(=O)(=O)O)c4c3)cc2)C(=O)C(Cl)=C1Nc1ccc(C(=O)Nc2ccc3cc(S(=O)(=O)O)cc(S(=O)(=O)O)c3c2)cc1
inactive: [13] 110 % of control | [14] 89 % of control | [15] 103 % of control

CC(C)CCCCCCCCCCCCC(=O)NCC(=O)NC1C(O)C(O)C(Nc2ncnc3nc[nH]c23)C(O)C1O (centres undefined)
inactive: dose: 0.5 mg/kg/injection, schedule: Q01DX009 (ip), vehicle: other 105 % of control | dose: 1.0 mg/kg/injection, schedule: Q01DX009 (ip), vehicle: other 101 % of control | dose: 2.0 mg/kg/injection, schedule: Q01DX009 (ip), vehicle: other 91 % of control | dose: 4.0 mg/kg/injection, schedule: Q01DX009 (ip), vehicle: other 91 % of control | dose: 8.0 mg/kg/injection, schedule: Q01DX009 (ip), vehicle: other 101 % of control | dose: 16.0 mg/kg/injection, schedule: Q01DX009 (ip), vehicle: other 95 % of control | dose: 32.0 mg/kg/injection, schedule: Q01DX009 (ip), vehicle: other 90 % of control
